Measured values from patent publication US7202239B2, “Cyclohexylphenyl carboxamides tocolytic oxytocin receptor antagonists” (Wyeth, priority 2001, dated 2007).

Target: human vasopressin V1a receptor subtype (Homo sapiens, UniProt P37288)
Assay: Vasopressin binding in CHO cell membranes expressing human vasopressin V1a subtype receptors
Details: [3H]Manning ligand; for inhibition at 0.1 µM / V1a % inhibition at 100 nM: 100 nM; for IC50: value in parentheses
Source text: Vasopressin Binding in Chinese Hamster Ovary Cell Membranes Expressing Human Vasopressin V1a Subtype Receptors
Chinese hamster ovary cells (CHO cells) stably transfected with the human vasopressin V1a subtype receptors were either obtained from Biosignal Inc., 1744 rue Williams, Montreal, Quebec, Canada or obtained from M. Thibonnier, Case Western Reserve University School of Medicine, Cleveland, Ohio. A. Passaging and Amplification of Cells: CHO cells transfected with the human vasopressin V1a subtype receptors obtained from M. Thibonnier (pZeoSV vector) are allowed to grow to confluency (approx. >90%) in T-150 flasks under sterile conditions, in a cell culture medium of F-12 Nutrient Mixture (HAM) with L-glutamine (Gibco Cat. # 11765-054) containing 15 mM HEPES (Gibco Cat. 15630-080), 1% antibiotic/antimycotic (add 5 mL 100×, Gibco Cat. 15240-062 per 500 mL F-12), 250 μg/mL Zeocin (add 1.25 mL of 100 mg/mL Invitrogen R-250-01 per 500 mL F-12) and 10% Fetal Bovine Serum (Qualified, heat inactivated, Gibco Cat. # 16140-063). The medium is removed by aspiration and the cells are washed with 10 mL of Hank's Balanced Salt solution (Gibco Cat. # 14175-095). The salt solution is removed by aspiration and the cells are trypsinized with 5 mL of trypsin-EDTA (0.05% trypsin, 0.53 mM EDTA-4Na, Gibco Cat. # 25300-070) for 1 min. The trypsin is removed by aspiration and the cells dislodged by tapping. Cell Culture medium (eg, 30 mL for 1:30 split) is immediately added and mixed well to inactivate trypsin. 1 mL of detached cells is added to new culture flasks containing fresh cell culture medium (eg, into 25 mL per T-150 flask), and mixed gently. The cells are incubated at 37° C. in 5% CO2. The medium is changed at 3 to 4 days interval (or as appropriate). The cells grow to confluency (approx. >75%–95%) within 7–8 days. All steps are done under sterile conditions. B. Membrane Preparation: The cells are washed twice gently with Hank's Balanced Salt solution (e.g,. use 10 mL per T-150 flask). The excess is removed and the cells are bathed for 15–30 min. in an enzyme-free Cell Dissociation Buffer (e.g. use 8 mL Hank's Based, Gibco Cat. # 13150-016 per T-150 flask) until the cells are loosened. The contents are transferred to centrifuge tubes (50 mL) kept in an ice bath. All subsequent steps are done at 4° C. The tubes are centrifuged at 300×g for 15 min (1380 rpm on SORVAL, Model RT6000D, using rotor for the 50 mL tubes). The supernatant is discarded and the cells suspended in homogeneizing buffer(10 mM Tris-HCl containing 0.25 M sucrose and 1 mM EDTA, pH 7.4) ensuring that the volume of the buffer is about ten times the volume of the cell pellet. The cells are pooled into a centrifuge tube (50 mL) and homogenized with Polytron at setting 6 for 10 sec. The homogenate is transferred into a Potter-Elvjehm homogenizer and homogenized with 3 strokes. The homogenate is centrifuged at 1500× g for 10 min at 4° C. (3100 rpm using SORVAL, model RT6000D, using the rotor for 50 mL tubes). The pellet is discarded. The supernatant is centrifuged at 100,000×g for 60 min. at 4° C. (Beckman L8-80M ultracentrifuge; spin at 37,500 rpm with rotor type 70 Ti for 50 mL tubes; 38,000 rpm with type 80Ti for 15 mL tubes; or 35,800 rpm with rotor type 45Ti). The supernantant is discarded and the pellet suspended in 3 to 4 mL of Tris buffer (50 mM TRIS-HCl, pH 7.4). The protein content is estimated by the Bradford or Lowry method. The volume of the membrane suspension is adjusted with the membrane buffer (50 mM Tris-HCl containing 0.1% BSA and 0.1 mM PMSF) to give 3.0 mg/mL (or as appropriate) of protein. The membranes are aliquoted and stored at −70° C. C. […]

Chain of human vasopressin V1a receptor subtype (P37288 whole entry): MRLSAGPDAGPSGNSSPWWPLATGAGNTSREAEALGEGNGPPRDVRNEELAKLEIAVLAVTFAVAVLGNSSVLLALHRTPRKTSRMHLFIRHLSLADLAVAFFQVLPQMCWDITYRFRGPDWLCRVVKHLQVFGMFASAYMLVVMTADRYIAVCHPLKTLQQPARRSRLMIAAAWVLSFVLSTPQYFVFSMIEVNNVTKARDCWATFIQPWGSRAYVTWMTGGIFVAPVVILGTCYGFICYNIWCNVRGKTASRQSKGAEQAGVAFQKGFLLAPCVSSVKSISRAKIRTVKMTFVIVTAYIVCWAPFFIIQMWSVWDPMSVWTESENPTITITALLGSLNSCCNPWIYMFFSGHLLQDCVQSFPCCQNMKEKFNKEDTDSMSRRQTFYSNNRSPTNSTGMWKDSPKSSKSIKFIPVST

Row | Structure (SMILES) | inhibition at 0.1 µM | IC50 | further results
1 | COC(=O)c1ccc2c(c1)N(C(=O)c1ccc(C3CCCCC3)cc1)Cc1ccc(C(=O)N3CCN(C)CC3)n1C2.Cl [Example 1, Methyl 10-(4-cyclohexylbenzoyl)-3-[(4-methyl-1-piperazinyl)carbonyl]-10,11-dihydro-5H-pyrrolo[2,1-c][1,4]benzodiazepine-8-carboxylate hydrochloride salt] | -7% | – | –
2 | CN1CCN(C(=O)c2ccc3n2Cc2ccc(C(=O)O)cc2N(C(=O)c2ccc(C4CCCCC4)cc2)C3)CC1 [Example 3, 10-(4-Cyclohexyl-benzoyl)-3-[(4-methyl-1-piperazinyl)carbonyl]-10,11-dihydro-5H-pyrrolo[2,1-c][1,4]benzodiazepine-8-carboxylic acid] | -19% | – | –
3 | CC(C)(C)c1ccc(C(=O)c2ccc3n2Cc2ccccc2N(C(=O)c2ccc(C4CCCCC4)cc2)C3)cc1 [Example 5, [4-(tert-Butyl)phenyl][10-(4-cyclohexyl-benzoyl)-10,11-dihydro-5H-pyrrolo[2,1-c][1,4]benzodiazepin-3-yl]methanone] | 3% | – | –
4 | CC(=O)c1ccc2n1Cc1ccccc1N(C(=O)c1ccc(C3CCCCC3)cc1)C2 [Example 6, 1-[10-(4-Cyclohexyl-benzoyl)-10,11-dihydro-5H-pyrrolo[2,1-c][1,4]benzodiazepin-3-yl]-ethanone] | – | 258 nM | –
5 | O=C(c1ccc(C2CCCCC2)cc1)N1Cc2ccc(C(=O)C(Cl)(Cl)Cl)n2Cc2ccccc21 [Example 7, 2,2,2-Trichloro-1-[10-(4-cyclohexyl-benzoyl)-10,11-dihydro-5H-pyrrolo[2,1-c][1,4]benzodiazepin-3-yl]-1-ethanone] | 4% | – | –
6 | NNC(=O)c1ccc2n1Cc1ccccc1N(C(=O)c1ccc(C3CCCCC3)cc1)C2 [Example 8, 10-(4-Cyclohexy-benzoyl)-10,11-dihydro-5H-pyrrolo[2,1-c][1,4]benzodiazepine-3-carboxylic acid hydrazide] | – | 543 nM | –
7 | CC(=NNC(=O)c1ccc2n1Cc1ccccc1N(C(=O)c1ccc(C3CCCCC3)cc1)C2)N(C)C [Example 9, N′-{[10-(4-Cyclohexyl-benzoyl)-10,11-dihydro-5H-pyrrolo[2,1-c][1,4]benzodiazepin-3-yl]carbonyl}-N,N-dimethylethanehydrazonamide] | – | 146 nM | –
8 | CN(C)C=NNC(=O)c1ccc2n1Cc1ccccc1N(C(=O)c1ccc(C3CCCCC3)cc1)C2 [Example 10, N′-{[10-(4-Cyclohexyl-benzoyl)-10,11-dihydro-5H-pyrrolo[2,1-c][1.4]benzodiazepin-3-yl]carbonyl}-N,N-dimethylhydrazonoformamide] | – | 366 nM | –
9 | CC(=O)NNC(=O)c1ccc2n1Cc1ccccc1N(C(=O)c1ccc(C3CCCCC3)cc1)C2 [Example 11, N′-Acetyl-10-(4-cyclohexyl-benzoyl)-10,11-dihydro-5H-pyrrolo[2,1-c][1,4]benzodiazepine-3-carbonyl-hydrazide] | – | 367 nM | –
10 | Cc1ccccc1C(=O)NNC(=O)c1ccc2n1Cc1ccccc1N(C(=O)c1ccc(C3CCCCC3)cc1)C2 [Example 12, 10-(4-Cyclohexyl-benzoyl)-N′-(2-methylbenzoyl)-10,11-dihydro-5H-pyrrolo[2,1-c][1,4]benzodiazepine-3-carbonyl-hydrazide] | – | – | V1a % inhibition at 100 nM: 31%
11 | O=C(NNC(=O)C1CC1)c1ccc2n1Cc1ccccc1N(C(=O)c1ccc(C3CCCCC3)cc1)C2 [Example 13, 10-(4-Cyclohexyl-benzoyl)-N′-(cyclopropylcarbonyl)-10,11-dihydro-5H-pyrrolo[2,1-c][1,4]benzodiazepine-3-carbonyl-hydrazide] | – | – | V1a % inhibition at 100 nM: 35%
12 | Cc1cccc(C(=O)NNC(=O)c2ccc3n2Cc2ccccc2N(C(=O)c2ccc(C4CCCCC4)cc2)C3)c1 [Example 14, 10-(4-Cyclohexyl-benzoyl)-N′-(3-methyl-benzoyl)-10,11-dihydro-5H-pyrrolo[2,1-c][1,4]benzodiazepine-3-carbonyl-hydrazide] | – | – | V1a % inhibition at 100 nM: 23%
13 | O=C(NNC(=O)c1ccc2n1Cc1ccccc1N(C(=O)c1ccc(C3CCCCC3)cc1)C2)Nc1ccccc1 [Example 15, 2-{[10-(4-Cyclohexyl-benzoyl)-10,11-dihydro-5H-pyrrolo[2,1-c][1,4]benzodiazepin-3-yl]carbonyl}-N-phenyl-1-hydrazinecarboxamide] | -4% | – | –
14 | NC(=O)c1ccc2n1Cc1ccccc1N(C(=O)c1ccc(C3CCCCC3)cc1)C2 [Example 16, 10-(4-Cyclohexyl-benzoyl)-10,11-dihydro-5H-pyrrolo[2,1-c][1,4]benzodiazepin-3-carboxamide] | – | 377 nM | –
15 | O=C(O)c1ccc2n1Cc1ccccc1N(C(=O)c1ccc(C3CCCCC3)cc1)C2 [Example 22, 10-(4-Cyclohexyl-benzoyl)-10,11-dihydro-5H-pyrrolo[2,1 c][1,4]benzodiazepine-3-carboxylic acid] | – | – | V1a % inhibition at 100 nM: 13%

More lines, main results first:

Row | inhibition at 0.1 µM | IC50 | Structure (SMILES) | further results
16 | – | 306 nM | CN(C)/C=N/C(=O)c1ccc2n1Cc1ccccc1N(C(=O)c1ccc(C3CCCCC3)cc1)C2 [Example 17] | –
17 | – | 87.5 nM | C/C(=N\C(=O)c1ccc2n1Cc1ccccc1N(C(=O)c1ccc(C3CCCCC3)cc1)C2)N(C)C [Example 18] | –
18 | – | 880 nM | CN(C)NC(=O)c1ccc2n1Cc1ccccc1N(C(=O)c1ccc(C3CCCCC3)cc1)C2 [Example 19, 10-(4-Cyclohexyl-benzoyl)-N′-N′-dimethyl-10,11-dihydro-5H-pyrrolo[2,1-c][1,4]benzodiazepine-3-carbohydrazide] | –
19 | 21% | – | CN(C)/C=C/C(=O)c1ccc2n1Cc1ccccc1N(C(=O)c1ccc(C3CCCCC3)cc1)C2 [Example 20, (E)-1-[10-(4-Cyclohexyl-benzoyl)-10,11-dihydro-5H-pyrrolo[2,1-c][1,4]benzodiazepin-3-yl]-3-(dimethylamino)-2-propen-1-one] | –
20 | 21% | – | CN(N)C(=O)c1ccc2n1Cc1ccccc1N(C(=O)c1ccc(C3CCCCC3)cc1)C2 [Example 21, 10-(4-Cyclohexyl-benzoyl)-N-methyl-10,11-dihydro-5H-pyrrolo[2,1-c][1,4]benzodiazepine-3-carboxylic acid hydrazide] | –
21 | – | 635 nM | O=C(c1ccc2n1Cc1ccccc1N(C(=O)c1ccc(C3CCCCC3)cc1)C2)N1CCN(c2ncccn2)CC1 [Example 23] | –
22 | – | 203 nM | CN1CCN(C(=O)c2ccc3n2Cc2ccccc2N(C(=O)c2ccc(C4CCCCC4)cc2)C3)CC1 [Example 24, [10-(4-Cyclohexyl-benzoyl)-10,11-dihydro-5H-pyrrolo[2,1-c][1,4]benzodiazepin-3-yl](4-methyl-1-piperazinyl)-methanone] | –
23 | – | 90.4 nM | O=C(c1ccc2n1Cc1ccccc1N(C(=O)c1ccc(C3CCCCC3)cc1)C2)N1CCC(N2CCCC2)CC1 [Example 25, [10-(4-Cyclohexyl-benzoyl)-10,11-dihydro-5H-pyrrolo[2,1-c][1,4]benzodiazepin-3-yl][4-(1-pyrrolidinyl)-1-piperidinyl]methanone] | –
24 | – | 200 nM | O=C(c1ccc2n1Cc1ccccc1N(C(=O)c1ccc(C3CCCCC3)cc1)C2)N1CCC(N2CCCCC2)CC1 [Example 26, [1,4′]Bipiperidinyl-1′-yl-[10-(4-cyclohexyl-benzoyl)-10,11-dihydro-5H-pyrrolo[2,1-c][1,4]benzodiazepin-3-yl]-methanone] | –
25 | 6% | – | Cc1ccccc1N1CCN(C(=O)c2ccc3n2Cc2ccccc2N(C(=O)c2ccc(C4CCCCC4)cc2)C3)CC1 [Example 27, [10-(4-Cyclohexyl-benzoyl)-10,11-dihydro-5H-pyrrolo[2,1-c][1,4]benzodiazepin-3-yl][4-(2-methylphenyl)-1-piperazinyl]-methanone] | –
